# Reference: patent publication US10711041B2, “Lyophilisate containing a cyclic peptide of formula X1-[sequence]-X2” (priority 2013, dated 2020)
# Bridges are numbered along the chain shown (N, C = ends). Where no end group is shown, it is not given here.
# Tested on: donor lung of a pig
# Experiment: Ex vivo lung perfusion (EVLP) of pig donor lungs simulating lung transplantation
# Protocol: Brain-dead pigs were brought into back position and a vertical sternotomy was carried out. The pericardium and both pleural cavities were opened. The lower and upper cavial venes were embraced. An inflow catheter was inserted into the lung artery by means of a purse-string suture in the right ventricular discharging tract. An inflow occlusion was obtained by connecting the lower and upper cavial venes, discharge occlusion by stapling off the aorta. The lungs then were protected by a prophylactic rinsing with cold, isotonic conservation solution (50 ml per kg body weight of the pig, comprising potassium ions, sodium ions, magnesium ions, calcium ions, chloride ions, dextran, glucose, buffer ions) through the inflow catheter. Incision of the left heart tube yields discharge. The lungs were aerated during that time period with 50% oxygen and ice sludge was given into both pleural cavities and into the mediastinum.
# The explanation technique in sum was the removal with heart and esophagus according to the following steps: • a) Dissection of the soft tissue bridges to the thoracic cavity at both sides of the trachea. • b) Transsection of both pulmonal ligaments (very deep, difficult exposure), then of VCI, of the low thoracic aorta ascendens, or the esophagus, respectively. • c) Blunt-separation of residual mediastinal adhesions. • d) Entire distension of the donor lung before the tracheal closure with a clip.
# After explantation the lungs were winded into gauze, put into an ice bag, filled with low-potassium-dextran-extracellular solution and stored at 4° C. for 18 to 24 hours.
# For the ex-vivo lung conditioning the EVLP-technique was used ([…]). […] During the EVLP the lung function may be assessed regularly regarding key indicators. […]
# The processing of the donor lung from the pig was started with sewing on a funnel-shaped tube from Silastic with a pressure-monitored catheter, implemented into the left atrial cuff (LA), for openly splinting the LA and for maintaining a closed perfusion circulation. […]
# [1] = inhalation 1 mg/kg, vs Water for Injection
Compound,effects regarding the lung,arterio-venous pO2 difference ΔpO2 [1],dynamic lung conformity (compliance) [1]
"Cyclo(CGQREAPAGAAAKPWYC) (disulfide 1-17) [SEQ ID NO: 7, reference compound]",no improving effects,,
C[C@@H]1NC(=O)CNC(=O)[C@H](CCC(=O)O)NC(=O)[C@@H]2CCCN2C(=O)[C@H]([C@@H](C)O)NC(=O)[C@H](CCC(=O)O)NC(=O)[C@H](CCCNC(=N)N)NC(=O)[C@H](CCC(N)=O)NC(=O)CNC(=O)[C@@H](N)CSSC[C@@H](C(=O)O)NC(=O)[C@H](Cc2ccc(O)cc2)NC(=O)[C@H](Cc2c[nH]c3ccccc23)NC(=O)[C@@H]2CCCN2C(=O)[C@H](CCCCN)NC(=O)[C@H](C)NC(=O)[C@H](CCC(=O)O)NC1=O [SEQ ID NO: 1],,improved,improved
